Source: patent US20250345345A1, “METHODS FOR THE TREATMENT OF NEUROLOGICAL DISORDERS” (Praxis Precision Medicines, Inc., priority 2022, published 2025)

How the values were obtained:
[1] = evening versus morning dosing; Khodadoustan et al. 2017; cited from earlier work
[2] = system: PTZ-evoked seizures in CD-1 male mice; experiment: PTZ acute seizure model, combination of Compound 1 with Compound A (Example 2); type: in vivo; conditions: 30 minutes before PTZ 120 mg/kg s.c., n=12
Procedure: The combination of Compound 1 with Compound A for the treatment of seizures was investigated using a PTZ acute seizure model. Accordingly, the effect on PTZ-evoked seizures was evaluated for a vehicle control, Compound A alone, Compound 1 alone, and a combination of Compound 1 and Compound A.
Six-week old CD-1 male mice (25-35 g) were used in the following experiment. Study groups (n=12 for each group) were as follows: • (1) 35% 2-hydroxypropyl-beta-cyclodextrin (HPBCD), the vehicle for Compound 1 and Compound A (10 ml/kg, p.o.); • (2) Compound A (1 mg/kg, p.o.); • (3) Compound A (3 mg/kg, p.o.); • (4) Compound A (6 mg/kg, p.o.); • (5) Compound A (10 mg/kg, p.o); • (6) Compound 1 (10 mg/kg, p.o.); and • (7) Compound A (1 mg/kg, p.o.) and Compound 1 (10 mg/kg, p.o.).
In each instance, 30 minutes after administration of the vehicle or compound(s), PTZ was administered at 120 mg/kg, s.c., 10 ml/kg.
Dosing solutions were made from stock solutions of the highest dose and diluted down for the lower doses. All solutions were protected from light and made fresh daily for two experiment days. […]
Latency and total numbers of clonic/tonic seizures were recorded for 30 minutes, and latency to death was also recorded up to 30 minutes. […] The latency and number of seizures for each mouse was recorded by an individual blinded to the treatment. […]

[3] = evening versus morning administration; as disclosed in WO 2022/232104; cited from earlier work

CCOC(=O)C1=C(COCCN)NC(C)=C(C(=O)OC)C1c1ccccc1Cl (stereo not shown) [amlodipine besylate]
Cmax, evening administration compared to morning dosing [1]: increased
Tmax, evening administration compared to morning dosing [1]: reduced

CCOC(F)(F)c1nnc2ccc(-c3cnc(OCC(F)(F)F)c(F)c3)cn12 [Compound A]
seizure-free mice of the twelve mice ([2]; Compound A 1 mg/kg p.o. alone, p<0.01 versus combination): none

COC[C@@]1(O)CC[C@@]2(C)[C@@H](CC[C@@H]3[C@@H]2CC[C@]2(C)[C@@H](C(=O)Cn4ccnc4)CC[C@@H]32)C1 [Compound 1, 3α-Hydroxy-3β-methoxymethyl-21-(1′-imidazolyl)-5α-pregnan-20-one]
seizure-free mice of the twelve mice ([2]; Compound 1 10 mg/kg p.o. alone, n.s. versus combination): 3
maximum observed plasma concentration (Cmax), evening compared to morning administration [3]: reduces
overall drug exposure (AUCinf), evening compared to morning administration [3]: similar
time to maximum plasma concentration (tmax), evening compared to morning administration [3]: increases
